# Like-named read-outs stand apart in the source and are kept apart here.
# What was measured:
# [1] = system: wild-type zebrafish larvae; assay: General locomotor assay in zebrafish larvae (locomotor activity, repetitive behaviors); assay type: in vivo, Danio rerio; conditions: for response vs control in vivo at 10 µM: Danio rerio, Table 5, 10 μM concentration, N = 12; for Angular Velocity / Total Distance Moved / Variance of Turn Angle: Table 3, tested at 1 μM due to toxicity at 10 μM (footnote a)
# Procedure: Five days post fertilization (dpf) zebrafish larvae were exposed to a range of nonlethal concentrations of the compounds in a 24-well plate with appropriate controls. The movement of each larval zebrafish was monitored with the Noldus behavior recording system (Noldus Information Technology, Leesburg VA) and quantified using EthoVision® XT 15 software (Noldus Information Technology, Leesburg VA). The plate was immediately placed in the incubator for a 30-minute exposure period. After 30 minutes, the plate was transferred to the Noldus system and swimming behavior was recorded in 100% light for 30 minutes to measure spontaneous swimming behavior. The light was switched off for 10 minutes (dark period) and then switched on for 10 minutes (light period), which was then repeated for two additional cycles. In total, the larvae were exposed to three cycles of alternating 10-minute dark and light periods (100% darkness-to-100% light). […]
# All data for exposure and the behavioral end points were analyzed by one-way ANOVA (factor: drug conc) followed by a Dunnett's multiple comparisons test for post hoc significance between drug concentration and control group. Statistically significant differences are noted as follows: *, p<0.05; **, p<0.01; ***, p<0.001.
# [2] = system: wild-type zebrafish larvae; assay: Maximum tolerated concentration (MTC) determination in zebrafish larvae; assay type: in vivo, Danio rerio
# Procedure: Determination of maximum tolerated concentration was completed by placing 5 days post fertilization (dpf) wild-type zebrafish larvae in a 24 well plate at 6 fish per well, and one compound concentration per well. […] Death was determined by the absence of heartbeat. Additional endpoints were used to assess toxicity at non-lethal concentrations such as startle capacity (poke stimulus), abnormalities in swimming behavior (loss of dorsoventral balance), and gross morphological deformities (bent body). […] The MTC determination was used to select three doses of each compound (low, medium, high dose) to be used in behavioral assays.
# [3] = target: T1, M1 muscarinic receptors expressed in CHO cells (Homo sapiens, UniProt P11229); assay: [3H]-arachidonic acid release screen with and without ACh and modulator; assay type: cell-based; conditions: for Modulation of ACh activity (in words): [3H]AA release
# T1 construct: expressed in transfected cells; host or cells: CHO (CHO-hM1, stably transfected)
# T1 sequence (P11229 1-460): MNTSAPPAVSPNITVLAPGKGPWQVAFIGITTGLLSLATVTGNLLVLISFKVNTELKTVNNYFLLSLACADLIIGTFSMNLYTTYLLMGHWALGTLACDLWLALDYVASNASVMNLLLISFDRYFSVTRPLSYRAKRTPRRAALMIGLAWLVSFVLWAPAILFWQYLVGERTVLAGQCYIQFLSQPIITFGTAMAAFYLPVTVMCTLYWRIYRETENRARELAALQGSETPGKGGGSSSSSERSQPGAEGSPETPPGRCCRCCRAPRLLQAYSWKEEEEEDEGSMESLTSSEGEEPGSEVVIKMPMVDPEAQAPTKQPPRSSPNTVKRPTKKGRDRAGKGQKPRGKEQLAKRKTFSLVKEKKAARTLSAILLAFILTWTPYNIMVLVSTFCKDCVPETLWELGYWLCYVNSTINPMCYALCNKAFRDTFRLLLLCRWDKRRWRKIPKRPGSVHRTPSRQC
# Procedure: CHO cells expressing human M1 muscarinic receptors were cultured at 37° C. in a 5% CO2 atmosphere in F12 medium supplemented with 5% fetal bovine serum, 100 units/mL penicillin, and 100 μg/mL streptomycin.
# Measurement of [^3H]AA release was performed. Stably transfected CHO-hM1 or CHO-hM3 cells were seeded on 24-well plates (Greiner Bio-One GmbH, Frickenhausen, Germany) at a density of 5.0×10^4 cells/well in 0.5 ml of F-12 medium. Cells were incubated until they attached (approximately 3 h), followed by the addition of [^3H]AA to a final concentration of 0.05 μCi of [^3H]AA per well. The cells were then grown for 16 to 20 h before the assay was performed. [^3H]AA release was measured in Eagle's basal medium with 20 mM HEPES and 2 mg/ml fatty acid-free bovine serum albumin (EM-BSA). Cells were rinsed twice with EM-BSA, followed by the addition of EM-BSA media containing experimental agents and incubated for 1 h at 37° C. The assay was terminated by aspiration of the media, and the amount of [^3H]AA released was determined by liquid scintillation counting (Beckman-Coulter LS6500).
# For some assays, pretreatment with phenoxybenzamine (POB) was employed, as indicated, to reduce the number of available receptors per cell. Stock POB was made up at 10 mM in ethanol and stored at −20° C. Each well was pretreated with 0.5 ml of the appropriate concentration in PBS with 1 mM CaCl2 and 1 mM MgCl2 (PBS++) for 30 min at 37° C., followed by 5 washes with PBS++. After pretreatment, the normal protocol was followed as above.
# Tabulated [^3H]AA release data are represented as a fraction of maximal release in the presence of 100 μM ACh or as the fraction of release elicited by the appropriate concentration of ACh alone, as indicated dose-response curves were normalized to the maximal response of ACh without allosteric ligand. Some response curves were analyzed using the empirical four-parameter equation: […]
# Disintegration per minute (DPM) values for a single compound were obtained in triplicate, and each compound was evaluated on three separate 24-well plates. The mean values for each condition from each of the three 24-well plates were used for the statistical analysis. The baseline mean was subtracted from each value, then normalized to the mean response produced by 100 μM ACh (set at 1.0). Statistical analyses were completed on the normalized values via one-way repeated measures ANOVA with Tukey's post hoc test. Statistically significant differences are noted as follows: *, p<0.05; **, p<0.01; ***, p<0.001.
# [4] = read-out: Variance of Turn Angle
# [5] = after 24-hour exposure in separate experiments, Table 5
# [6] = 10 μM modulator, 0.1 μM ACh, Table 4, N = 4-5
# [7] = 10 μM modulator, 100 μM ACh, Table 4, N = 4-5
# [8] = 10 μM modulator, Table 4, N = 4-5
# [9] = after 24-hour exposure, Table 3
# [10] = 10 μM modulator, 0.1 μM ACh, Table 1
# [11] = 10 μM modulator, 100 μM ACh, Table 1
Structure (SMILES),"Maximum Tolerated Concentration [2, 9]","Ratio of response of ACh with modulator to response of ACh alone, 0.1 μM ACh [3, 10]","Ratio of response of ACh with modulator to response of ACh alone, 100 μM ACh [3, 11]","Stimulation of [3H]AA release, No ACh (fraction of stimulation above the control) ([3]; 10 μM modulator, Table 1)",other results
COc1c(I)cc(CN2C(=O)C(=O)c3cc(OC(F)(F)F)ccc32)cc1I [GK-1-44],,,,,"response vs control in vivo at 10 µM ([1]; read-out: Angular Velocity): 114 ± 19.2%; response vs control in vivo at 10 µM ([1]; read-out: Total Distance Moved): 78.5 ± 11.1%; response vs control in vivo at 10 µM [1, 4]: 105 ± 10.6%; Maximum Tolerated Concentration [2, 5]: 10 µM; Ratio of response of ACh with modulator to response of ACh alone, 0.1 μM ACh [3, 6]: 2.47 ± 0.22; Ratio of response of ACh with modulator to response of ACh alone, 100 μM ACh [3, 7]: 1.67 ± 0.11; Stimulation of [3H]AA release, No ACh (fraction of stimulation above the control) [3, 8]: 0.37 ± 0.04"
"CCCCc1oc2ccccc2c1C(=O)c1cc(I)c(O)c(I)c1 [Compound 3, reference compound]",3 µM,0.42 ± 0.00,0.81 ± 0.07,0.02 ± 0.00,Angular Velocity [1]: 101.8 ± 19.2 % of control; Total Distance Moved [1]: 145.4 ± 21.7 % of control; Variance of Turn Angle [1]: 93.4 ± 9.4 % of control; Modulation of ACh activity (in words) ([3]; modulator 10 μM): completely inactive
"CCCCc1oc2ccccc2c1C(=O)c1ccc(O)cc1 [Compound 4, reference compound]",0.3 µM,,,0.03 ± 0.02,"Angular Velocity [1]: 105.7 ± 14.8 % of control; Total Distance Moved [1]: 56.7 ± 9.3 % of control; Variance of Turn Angle [1]: 115.8 ± 12.4 % of control; Ratio of response of ACh with modulator to response of ACh alone, 0.1 μM ACh [3]: 0.49 ± 0.09; Ratio of response of ACh with modulator to response of ACh alone, 100 μM ACh [3]: 0.72 ± 0.04; Modulation of ACh activity (in words) ([3]; modulator 10 μM): completely inactive"
COc1c(Br)cc(Cn2cc(C(=O)O)c(=O)c3ccccc32)cc1Br [GK-1-50],,,,,"response vs control in vivo at 10 µM ([1]; read-out: Angular Velocity): 124 ± 21.8%; response vs control in vivo at 10 µM ([1]; read-out: Total Distance Moved): 87.9 ± 10.7%; response vs control in vivo at 10 µM [1, 4]: 107 ± 11.2%; Maximum Tolerated Concentration [2, 5]: 10 µM; Ratio of response of ACh with modulator to response of ACh alone, 0.1 μM ACh [3, 6]: 2.77 ± 0.49; Ratio of response of ACh with modulator to response of ACh alone, 100 μM ACh [3, 7]: 1.11 ± 0.12; Stimulation of [3H]AA release, No ACh (fraction of stimulation above the control) [3, 8]: 0.47 ± 0.10"
"CCCCc1oc2ccccc2c1C(=O)c1ccc(OC)cc1 [Compound 6a, (2-butylbenzofuran-3-yl)(4-methoxyphenyl)methanone]",3 µM,1.18 ± 0.06,1.03 ± 0.03,0.05 ± 0.01,
"CCCCc1oc2ccccc2c1C(=O)c1cc(I)c(OCCN(CC)C(=O)c2ccccc2)c(I)c1 [Compound 5b, N-(2-(4-(2-butylbenzofuran-3-carbonyl)-2,6-diiodophenoxy)ethyl)-N-ethylbenzamide]",10 µM,1.34 ± 0.05,1.26 ± 0.05,0.02 ± 0.01,"Increase of mAChR activity compared to treatment with ACh alone ([3]; 10 μM modulator): 80%; Intrinsic agonist activity (in words) ([3]; modulator 10 μM, without ACh): lacked intrinsic activity"
"CCCCc1oc2ccc(NS(C)(=O)=O)cc2c1C(=O)c1ccc(OCCCN(CCCC)CCCC)cc1 [Dronedarone, reference compound]",10 µM,0.25 ± 0.05,0.75 ± 0.07,0.08 ± 0.01,
"COc1c(F)cc(CN2C(=O)C(=O)c3ccccc32)cc1F [Compound 8g, 1-(3,5-difluoro-4-methoxybenzyl)indoline-2,3-dione]",30 µM,1.33 ± 0.03,0.94 ± 0.02,0.03 ± 0.01,
"COc1ccc(CN2C(=O)C(=O)c3ccccc32)cc1F [Compound 8h, 1-(3-fluoro-4-methoxybenzyl)indoline-2,3-dione]",30 µM,1.17 ± 0.02,1.03 ± 0.01,0.04 ± 0.01,
"COc1ccc(CN2C(=O)C(=O)c3ccccc32)cc1Cl [Compound 8f, 1-(3-chloro-4-methoxybenzyl)indoline-2,3-dione]",10 µM,1.49 ± 0.03,1.13 ± 0.04,0.08 ± 0.02,
"COc1ccc(CN2C(=O)C(=O)c3ccccc32)cc1Br [Compound 8d, 1-(3-bromo-4-methoxybenzyl)indoline-2,3-dione]",100 µM,1.31 ± 0.06,0.87 ± 0.01,0.04 ± 0.01,
